The text below walks through data of US20140315933A1, “CHEMICAL COMPOUNDS” (Pfizer Limited, priority 2013, published 2014).

Usually IC50 stands for the concentration that inhibits the measured activity by half. Lower therefore signals greater potency in that assay.

Molecules are shown by their SMILES. Where a name gives a salt, the structure may show the parent alone.

For this assay, the target named is T1, URAT-1 transporter (Homo sapiens, UniProt Q96S37).
T1 construct: expressed in transfected cells
T1 sequence (Q96S37 with tags, fused parts or gaps): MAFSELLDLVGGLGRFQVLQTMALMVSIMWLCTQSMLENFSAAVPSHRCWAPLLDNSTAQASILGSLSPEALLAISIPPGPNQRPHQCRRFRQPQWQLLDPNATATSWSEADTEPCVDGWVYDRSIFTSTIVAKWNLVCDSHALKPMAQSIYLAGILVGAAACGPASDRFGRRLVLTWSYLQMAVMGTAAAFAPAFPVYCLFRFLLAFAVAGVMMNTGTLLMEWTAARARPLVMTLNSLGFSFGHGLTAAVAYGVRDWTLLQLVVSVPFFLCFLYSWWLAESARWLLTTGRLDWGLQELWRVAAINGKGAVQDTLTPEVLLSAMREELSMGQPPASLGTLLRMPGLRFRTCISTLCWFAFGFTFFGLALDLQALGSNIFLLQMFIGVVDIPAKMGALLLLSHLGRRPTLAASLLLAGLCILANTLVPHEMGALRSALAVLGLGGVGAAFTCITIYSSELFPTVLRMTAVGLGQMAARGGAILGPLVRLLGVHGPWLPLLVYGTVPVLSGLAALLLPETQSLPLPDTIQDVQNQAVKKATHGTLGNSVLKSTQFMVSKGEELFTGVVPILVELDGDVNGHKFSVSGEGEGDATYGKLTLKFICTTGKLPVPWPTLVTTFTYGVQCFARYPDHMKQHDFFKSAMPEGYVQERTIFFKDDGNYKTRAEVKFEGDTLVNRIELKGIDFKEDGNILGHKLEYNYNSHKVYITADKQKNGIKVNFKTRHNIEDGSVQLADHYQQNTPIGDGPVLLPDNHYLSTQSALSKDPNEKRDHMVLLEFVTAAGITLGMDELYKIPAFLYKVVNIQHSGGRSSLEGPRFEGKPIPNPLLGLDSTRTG
The assay can be described thus: URAT-1 inhibitor activity: [14C]-uric acid uptake into CHO-URAT1(L)GFP#8 (CHO#8) cells, scintillation proximity. The assay is classed as cell-based. The text has this:
The nucleotide sequence for the long isoform of URAT1 (NM_144585) was C-terminally fused to that of enhanced green fluorescent protein (eGFP) (hereinafter referred to as URAT1(L)GFP). The combined sequence was codon-optimised and custom synthesized. The synthesized sequence was generated in pDONR221 Gateway entry vector (Invitrogen Life Technologies) prior to cloning in pLenti6.3/V5 Gateway destination vector (Invitrogen Life Technologies).
Lentiviral particles were generated according to ViraPower HiPerform expression system procedure (Invitrogen Life Technologies) and used to transduce CHO cells. Blasticidin selection enabled the generation of a stable clonal pool of cells, confirmed by expression of GFP and V5 epitope. The clonal pools were sorted using fluorescence-activated cell sorting (FACS) on the basis of GFP expression with the gating set at the top 50% of expression into single cells which were subsequently expanded to generate clonal lines. […] This cell line was used for all screening activities and is referred to as CHO-URAT1(L)GFP#8 or CHO#8.
The potency of the compounds of formula (I) as inhibitors of the URAT-1 transporter was determined as follows.
CHO#8 cells were cultured in cell line maintenance flasks in medium consisting of Dulbecco's modified Eagle medium (DMEM) with high glucose and sodium pyruvate (4.5 g of glucose per litre, Invitrogen Life Technologies), supplemented with heat-inactivated foetal bovine serum (FBC, 10% v/v), 1×NEAA (non-essential amino acids) and blasticidin (10 μg/ml). Cultures were grown in 175 cm^2 tissue culture flasks in a humidified incubator at approximately 37° C. in approximately 95% air/5% CO2. Near confluent CHO#8 cell cultures were harvested by trypsinisation, re-suspended in culture medium and the process was repeated once or twice weekly to provide sufficient cells for use.
Assay ready flasks were generated by the same method, except the cells were not cultured in blasticidin.
Assay ready frozen cells were generated by freezing 40,000,000 cells in 1 ml of FBS (without blasticidin) containing 10% DMSO per vial. One vial was sufficient for 5 assay plates. Each vial was thawed rapidly to 37° C., washed and re-suspended in pre-warmed culture medium for seeding onto assay plates.
CHO#8 cells were seeded onto Cytostar™ 96-well plates at a density of […]. The cells were cultured for 1 day at approximately 37° C. in a humidified incubator containing approximately 5% CO2 in air. After approximately 24 hours culture, cells were used for uptake experiments.
On the day of assay, culture medium was removed from the wells and the cells were washed once with 50 μL of chloride-containing buffer (136.7 mM NaCl, 5.36 mM KCl, 0.952 mM CaCl2, 0.441 mM KH2PO4, 0.812 mM MgSO4, 5.6 mM D-glucose, 0.383 mM Na2HPO4.2H2O, 10 mM HEPES, pH 7.4 with NaOH). The cells were pre-incubated with another 50 μL of chloride-containing buffer for one hour at approximately 37° C. in a humidified incubator containing approximately 5% CO2 in air.
Assay compound plates were prepared by diluting the compounds of formula (I) with chloride-free buffer (125 mM Na-gluconate, 4.8 mM K-gluconate, 1.3 mM Ca-gluconate, 1.2 mM KH2PO4, 1.2 mM MgSO4, 5.6 mM D-glucose, 25 mM HEPES, pH 7.4 with NaOH) in 100% DMSO to a final concentration of 1% DMSO. [^14C]-Uric Uric acid working stock was made by addition of radiolabeled compound to a final concentration of 120 nM in chloride-free buffer. In all wells, the final assay concentration of solvent (DMSO) was 0.25%; the final assay concentration of [^14C]-uric acid was 30 nM in chloride-free buffer and the final compound of formula (I) concentrations ranged from 0 to 10 μM.
After pre-incubation, cells were washed with 50 μL of chloride-free buffer and another 50 μL of chloride-free buffer was added. […]
In general terms: In a scintillation proximity assay essentially only radioactivity close to the scintillant gives light.
Consider `CC(C)c1cccc(Oc2ccc(S(=O)(=O)Nc3nccs3)c(F)c2)c1` [Example 73, 2-fluoro-4-[3-(propan-2-yl)phenoxy]-N-(1,3-thiazol-2-yl)benzenesulfonamide], for which the concentration for half-maximal inhibition (IC50) was > 10 µM.
To `N#Cc1cc(S(=O)(=O)Nc2nccs2)ccc1Oc1ccc(N)cc1` [compound 184] belongs > 6.24 µM; to `N#Cc1cc(S(=O)(=O)Nc2ncns2)ccc1Oc1cc(C(F)(F)F)ccc1F` [Example 44, 3-cyano-4-[2-fluoro-5-(trifluoromethyl)phenoxy]-N-(1,2,4-thiadiazol-5-yl)benzenesulfonamide], 4.33 µM; to `N#Cc1cc(S(=O)(=O)Nc2ncns2)ccc1Oc1ccc(C(F)(F)F)nc1` [Example 21, 3-cyano-N-(1,2,4-thiadiazol-5-yl)-4-{[6-(trifluoromethyl)pyridin-3-yl]oxy}benzenesulfonamide], > 10 µM.
To `Cc1cc(S(=O)(=O)Nc2nncs2)c(F)cc1Oc1ccc(F)c(C#N)c1` [compound 214] belongs > 10 µM; to `Cn1cc(NS(=O)(=O)c2ccc(Oc3ccc(C#N)c(Cl)c3)c(C#N)c2)cn1` [Example 58, 4-(3-chloro-4-cyanophenoxy)-3-cyano-N-(1-methyl-1H-pyrazol-4-yl)benzenesulfonamide], > 10 µM.
To `CC(C)c1ccc(Oc2ccc(S(=O)(=O)Nc3ncc(F)s3)cc2C#N)cc1` [Example 103, 3-cyano-N-(5-fluoro-1,3-thiazol-2-yl)-4-[4-(propan-2-yl)phenoxy]benzenesulfonamide] belongs > 6.78 µM; to `CC(C)c1ncccc1Oc1ccc(S(=O)(=O)Nc2ncns2)cc1C#N` [compound 274, trifluoroacetic acid salt], > 10 µM.
With `O=S(=O)(Nc1cscn1)c1ccc(Oc2ccc(F)c(F)c2)c(I)c1` [compound 241], the IC50 was > 10 µM.
To `N#Cc1cc(S(=O)(=O)Nc2ncns2)ccc1Oc1ccc(Cl)cc1F` [Example 52, 4-(4-chloro-2-fluorophenoxy)-3-cyano-N-(1,2,4-thiadiazol-5-yl)benzenesulfonamide] belongs 0.65 µM; to `Cc1cccc(Oc2ccc(S(=O)(=O)Nc3ncns3)cc2C#N)c1` [compound 260], 1.96 µM; to `N#Cc1cc(S(=O)(=O)Nc2ncc(Cl)s2)ccc1Oc1ccccc1Cl` [Example 85, 4-(2-chlorophenoxy)-N-(5-chloro-1,3-thiazol-2-yl)-3-cyanobenzenesulfonamide], 0.845 µM.
Take `[2H]C([2H])([2H])Oc1cc(Cl)ccc1Oc1ccc(S(=O)(=O)Nc2ncns2)cc1C#N` [Example 57]: 0.517 µM corresponded to half-maximal inhibition (IC50).
To `Cc1ccc(Oc2ccc(S(=O)(=O)Nc3ncc(F)s3)cc2C#N)c(C)c1` [Example 101, 3-cyano-4-(2,4-dimethylphenoxy)-N-(5-fluoro-1,3-thiazol-2-yl)benzenesulfonamide] belongs 1.76 µM; to `O=S(=O)(Nc1cscn1)c1cc(Cl)c(Oc2ccc(F)c(F)c2)cc1F` [compound 229], > 10 µM.
On to `N#Cc1ccc(Oc2ccc(S(=O)(=O)Nc3cscn3)c(Cl)c2)cc1Cl` [compound 227], for which the IC50 was > 10 µM.
`N#Cc1cc(S(=O)(=O)Nc2nncs2)ccc1Oc1cnc(OC2CCC2)c(Cl)c1` [Example 336]: the IC50 amounted to 3.91 µM.
To `N#Cc1cc(S(=O)(=O)Nc2nccs2)ccc1Oc1cccc(Cl)c1C#N` [compound 180] belongs 0.814 µM; to `N#Cc1cc(Oc2ccc(S(=O)(=O)Nc3ncns3)cc2C#N)ccc1F` [compound 206], > 3.32 µM; to `N#Cc1ccc(Oc2cc(F)c(S(=O)(=O)Nc3ncns3)cc2F)cc1Cl` [compound 208, 4-(3-chloro-4-cyanophenoxy)-2,5-difluoro-N-(1,2,4-thiadiazol-5-yl)benzenesulfonamide], 1.79 µM.
To `COc1cc(C)ccc1Oc1cc(F)c(S(=O)(=O)Nc2nncs2)cc1Cl` [compound 299] belongs 4.37 µM; to `COc1cc(F)ccc1Oc1ccc(S(=O)(=O)Nc2ncns2)cc1C#N` [compound 286], 1.01 µM.
To `N#Cc1cc(S(=O)(=O)Nc2nccs2)ccc1Oc1cccc(I)c1` [compound 167] belongs 0.166 µM; to `N#Cc1cccc(Oc2ccc(S(=O)(=O)Nc3ncc(F)s3)cc2C#N)c1` [Example 132, 3-cyano-4-(3-cyanophenoxy)-N-(5-fluoro-1,3-thiazol-2-yl)benzenesulfonamide], 2.6 µM; to `Cc1cc(NS(=O)(=O)c2ccc(Oc3ccc(C#N)c(Cl)c3)c(C#N)c2)no1` [Example 5, 4-(3-chloro-4-cyanophenoxy)-3-cyano-N-(5-methyl-1,2-oxazol-3-yl)benzenesulfonamide diethylamine salt], > 10 µM.
`CSc1ncccc1Oc1ccc(S(=O)(=O)Nc2ncns2)cc1C#N` [compound 254, trifluoroacetic acid salt] registered an IC50 of 0.878 µM.
For `O=S(=O)(Nc1cscn1)c1cc(F)c(Oc2ccc(F)c(F)c2)cc1F` [compound 238], the half-inhibitory concentration (IC50) is > 10 µM.
To `Cc1cc(Cl)ccc1Oc1ccc(S(=O)(=O)Nc2ncns2)cc1C#N` [Example 42, 4-(4-chloro-2-methylphenoxy)-3-cyano-N-(1,2,4-thiadiazol-5-yl)benzenesulfonamide] belongs > 3.09 µM; to `N#Cc1cc(S(=O)(=O)Nc2ncc(F)s2)ccc1Oc1ccc(Cl)c(C(F)(F)F)c1` [Example 141, 4-[4-chloro-3-(trifluoromethyl)phenoxy]-3-cyano-N-(5-fluoro-1,3-thiazol-2-yl)benzenesulfonamide], 0.737 µM; to `COc1cc(Cl)cc(Oc2ccc(S(=O)(=O)Nc3ncns3)cc2C#N)c1` [compound 269], 0.278 µM.
To `Cc1ccccc1Oc1ccc(S(=O)(=O)Nc2ncc(F)s2)cc1C#N` [Example 112, 3-cyano-N-(5-fluoro-1,3-thiazol-2-yl)-4-(2-methylphenoxy)benzenesulfonamide] belongs 4.03 µM.
To `N#Cc1cc(S(=O)(=O)Nc2ncns2)ccc1Oc1cc(Cl)ccc1OC(F)F` [Example 31, 4-[5-chloro-2-(difluoromethoxy)phenoxy]-3-cyano-N-(1,2,4-thiadiazol-5-yl)benzenesulfonamide] belongs 2.22 µM; to `CC(C)(O)c1cccc(Oc2ccc(S(=O)(=O)Nc3ncc(F)s3)cc2C#N)c1` [Example 135, 3-cyano-N-(5-fluoro-1,3-thiazol-2-yl)-4-[3-(2-hydroxypropan-2-yl)phenoxy]benzenesulfonamide], 1.73 µM.
`Cc1cc(Oc2cc(F)c(S(=O)(=O)Nc3nncs3)cc2Cl)ccc1F` [compound 322] registered an IC50 of 2.99 µM.
To `N#Cc1ccc(Oc2ccc(S(=O)(=O)Nc3ncns3)cc2Cl)cc1Cl` [compound 210] belongs 1.61 µM; to `Cc1c(Oc2ccc(S(=O)(=O)Nc3ncc(F)s3)cc2C#N)ccc(F)c1F` [Example 128, 3-cyano-4-(3,4-difluoro-2-(methylphenoxy)-N-5-fluoro-1,3-thiazol-2-yl)benzenesulfonamide], 1.19 µM; to `Cc1ccncc1Oc1cc(F)c(S(=O)(=O)Nc2nncs2)cc1Cl` [compound 313], 3.17 µM.
`N#Cc1cc(S(=O)(=O)Nc2nccs2)ccc1Oc1ccc(Cl)nc1` [compound 172] yielded a half-maximal inhibitory concentration (IC50) of 0.917 µM.
To `N#Cc1cc(S(=O)(=O)Nc2ncns2)ccc1Oc1ccc(F)cc1` [compound 294] belongs 0.888 µM.
